Measurements from patent publication US20100274050A1, “SOLID MILNACIPRAN AND PROCESS FOR THE PREPARATION OF THE SAME” (Glenmark Generics Limited, priority 2009, published 2010).
Where a name gives a salt, the structure may show the parent alone.

Assay: Bulk density / tapped density (tapped density tester ETD-1020)
Format: physicochemical
From the text: The bulk density used tapped density tester dual-platform ETD-1020 (Electrolab). System specifications. Speed: nominal rate of 300 taps per minute, Accuracy: Actual setting ±1 tap, Drop height: 14±2 mm. Platform rotation: 5-15 rotations/minute.

Q: For `CCN(CC)C(=O)C1(c2ccccc2)CC1CN` (stereo not shown) [milnacipran hydrochloride, Milnacipran hydrochloride], which Tapped density is on record?
A: Its Tapped density is “Tapped density = 0.43 g/ml”.
